The source of these data is paper PMC9034162, “Development of pyrazoline-based derivatives as aminopeptidase N inhibitors to overcome cancer invasion and metastasis” (RSC Advances, 2021).

As a reminder, the melting point is the temperature, or range, at which the solid turns liquid.

One data set has as its target T1, porcine APN (Sus scrofa, UniProt P15145).
T1 construct: soluble APN from porcine kidney microsomes (Biocol) was used as enzyme; purchased Biocol; host or cells: porcine kidney microsomes (tissue-derived)
T1 sequence (P15145 1-963): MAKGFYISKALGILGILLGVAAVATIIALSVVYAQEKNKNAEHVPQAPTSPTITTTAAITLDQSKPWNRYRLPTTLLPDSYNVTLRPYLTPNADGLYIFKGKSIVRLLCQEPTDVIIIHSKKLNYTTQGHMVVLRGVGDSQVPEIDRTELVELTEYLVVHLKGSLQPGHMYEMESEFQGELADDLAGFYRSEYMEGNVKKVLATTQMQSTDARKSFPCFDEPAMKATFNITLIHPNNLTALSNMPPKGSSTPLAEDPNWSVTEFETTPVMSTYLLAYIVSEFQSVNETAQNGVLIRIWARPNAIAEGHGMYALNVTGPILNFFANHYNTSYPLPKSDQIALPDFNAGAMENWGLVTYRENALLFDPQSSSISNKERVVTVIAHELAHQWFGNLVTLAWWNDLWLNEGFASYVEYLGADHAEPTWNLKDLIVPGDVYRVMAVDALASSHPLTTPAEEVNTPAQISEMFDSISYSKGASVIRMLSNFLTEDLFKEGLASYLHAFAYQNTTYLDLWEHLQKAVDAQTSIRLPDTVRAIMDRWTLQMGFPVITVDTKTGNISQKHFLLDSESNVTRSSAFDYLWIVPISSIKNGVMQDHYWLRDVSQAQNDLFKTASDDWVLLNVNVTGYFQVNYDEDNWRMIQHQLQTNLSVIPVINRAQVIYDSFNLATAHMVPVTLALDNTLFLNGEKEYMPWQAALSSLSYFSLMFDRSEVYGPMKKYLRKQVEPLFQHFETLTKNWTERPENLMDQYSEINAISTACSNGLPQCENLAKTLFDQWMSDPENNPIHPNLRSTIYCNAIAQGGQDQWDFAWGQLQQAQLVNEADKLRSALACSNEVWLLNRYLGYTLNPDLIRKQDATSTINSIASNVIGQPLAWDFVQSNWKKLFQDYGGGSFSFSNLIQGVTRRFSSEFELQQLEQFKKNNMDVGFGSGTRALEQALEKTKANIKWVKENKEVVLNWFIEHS
The experiment in a line: Enzymatic inhibition assay against APN in vitro. It counts as biochemical. The settings on record: for IC50: soluble APN from porcine kidney microsomes, L-Leu-p-nitroanilide substrate, pH 7.2, 37 °C 30 min, mean ± SD, triplicate. On the procedure: In the enzymatic inhibition assay against APN in vitro, L-Leu-p-nitroanilide was used as substrate and soluble APN from porcine kidney microsomes (Biocol) was used as enzyme. 50 mM PBS with pH 7.2 was used as buffer solution. Briefly, inhibitors (40 μL), PBS (145 μL), substrate (5 μL, 16 mmol L^−1) and APN solution (10 μL, 0.15 IU mL^−1) were added into 96-well plates. The mixture was incubated at 37 °C for 30 min. The optical density resulting from the hydrolysis product p-nitroanilide was measured at 405 nm with a plate reader (Varioskan, Thermo, USA).

Another data set concerns ES-2. The experiment in a line: Anti-proliferation assay (MTT). The settings on record: Homo sapiens, 48 h, mean ± SD, triplicate, read-out: IC50 anti-proliferative, ES-2. It counts as cell-based. On the procedure: (§1) The anti-proliferative activities of the selected compounds were evaluated using the MTT method. All the tumor cell lines were cultured in RPMI-1640 medium with 10% FBS at 37 °C in 5% CO2 humidified incubator. Firstly, cells (100 μL) were plated in 96-well plates and allowed to grow for 4 h. Then different concentrations of inhibitors (100 μL) were added. After incubation for 48 h, MTT solution (20 μL per well, 5 mg mL^−1) was added and the mixture was incubated for additional 4 h. Subsequently, the medium were poured off and DMSO (200 μL) was added to dissolve the formed formazan. After shaking for 15 min, the optical density values were measured using a plate reader at 570 nm (Varioskan, Thermo, USA).

For a further data set, the system named is HepG2. The data set can be described thus: Anti-proliferation assay (MTT). It counts as cell-based. The settings on record: Homo sapiens, 48 h, mean ± SD, triplicate, read-out: IC50 anti-proliferative, HepG2. On the procedure: as §1
The next data set relates to K562. The experiment in a line: Anti-proliferation assay (MTT). It counts as cell-based. The settings on record: Homo sapiens, 48 h, mean ± SD, triplicate, read-out: IC50 anti-proliferative, K562. On the procedure:
as §1

A further data set relates to PC-3. The data set can be described thus: Anti-proliferation assay (MTT). It counts as cell-based. The settings on record: Homo sapiens, 48 h, mean ± SD, triplicate, read-out: IC50 anti-proliferative, PC-3. The protocol:
as §1

Another data set deals with PLC/PRF/5. The experiment in a line: Anti-proliferation assay (MTT). It is filed as cell-based. The settings on record: Homo sapiens, 48 h, mean ± SD, triplicate, read-out: IC50 anti-proliferative, PLC/PRF/5. On the procedure: as §1
Another data set has as its system U937. The experiment in a line: Anti-proliferation assay (MTT). It counts as cell-based. The settings on record: Homo sapiens, U-937, 48 h, mean ± SD, triplicate, read-out: IC50 anti-proliferative, U937. On the procedure: as §1
The nature of data set [1]: Body weight monitoring in H22 pulmonary metastasis model. It counts as in vivo. The settings on record: 60 mg kg^−1 d^−1 intraperitoneally for 12 days, Kunming mice, weights every two days. On the procedure:
(§2) All animal procedures were performed in accordance with the Guidelines for Care and Use of Laboratory Animals of Shandong University and approved by the Animal Ethical and Welfare Committee (AEWC, China). The mice hepatoma H22 cell line was our laboratory-owned and 6 week old male Kunming mice were purchased from Center for New Drugs Evaluation of Shandong University, China. Firstly, H22 cells suspension (0.1 mL, 7.5 × 10^7 mL^−1) was injected via tail vein to establish a mice H22 pulmonary metastasis model. Subsequently, the mice were randomly divided into treatment and control groups. […] The body weights were monitored every two days. Finally, the mice were sacrificed and the lungs were removed and fixed in Bouin's solution. After 24 h, the metastasis nodes on the surface of pulmonary lobes were counted.

For another data set, the system named is ES-2 cells invasion. The experiment in a line: In vitro anti-invasion assay (matrigel transwell). It is filed as cell-based. The protocol: The carbonate membrane coated with matrigel in the upper chamber of transwell insert (BD BioCoat™ Matrigel™ Invasion Chambers) was rehydrated with RPMI-1640 culture medium (500 μL) containing 1% FBS for 2 h. After removing the medium, the upper and lower chambers were added the RPMI-1640 culture medium (100 μL) with 1% FBS containing the tested compounds and the RPMI-1640 culture medium (750 μL) with 10% FBS, respectively. Then, ES-2 cells suspending in the RPMI-1640 culture medium containing 1% FBS (400 μL, 2.5 × 10^5 cells per mL) were added into the upper chambers. The system was placed at 37 °C in 5% CO2 for 8 h. The ES-2 cells could invade the matrigel and migrate from the upper surface of the carbonate membrane into the lower surface of that. ES-2 cells on the upper surface of the carbonate membrane were erased by cotton swabs. Then, ES-2 cells on the lower surface were fixed with methanol, stained with 0.1% crystal violet, of which the photographs were taken under an inverted microscope. The average numbers of ES-2 cells in five random fields (100×) per well were counted. The inhibition rate of ES-2 cells invasion was calculated as follows: (A − B)/A × 100%, A means the number of ES-2 cells in the control group, and B means the number of ES-2 cells in the treated group. The experiments were repeated three times.

In a further data set the test system is mice H22 hepatoma cells. The data set can be described thus: In vivo anti-metastatic assay, mice H22 hepatoma cell pulmonary metastasis model. The settings on record: 60 mg kg^−1 d^−1 intraperitoneally for 12 days, Kunming mice, H22 cells via tail vein. On the procedure:
as §2

As to `NC(=O)N1N=C(c2cccc(Br)c2)CC1c1ccccc1OCC(=O)NO` (stereo not shown) [2b], the melting point was 164.4 to 166.4 °C. The IC50 at porcine APN turned out to be 260 ± 50 nM.
`NC(=O)N1N=C(c2ccc(Br)cc2)CC1c1ccccc1OCC(=O)NO` (stereo not shown) [2c] displayed a melting point of 190.2 to 192.2 °C. For the same compound, the IC50 against porcine APN is 2100 ± 200 nM.
For `COc1ccccc1C1=NN(C(N)=O)C(c2ccccc2OCC(=O)NO)C1` (stereo not shown) [2d], in that order: 198.4 to 200.2 °C and 270 ± 10 nM.
In the case of `COc1cccc(C2=NN(C(N)=O)C(c3ccccc3OCC(=O)NO)C2)c1` (stereo not shown) [2e], the melting point lay within 208.5 to 210.3 °C. At porcine APN, this compound returned an IC50 of 320 ± 30 nM.
Compound `COc1ccc(C2=NN(C(N)=O)C(c3ccccc3OCC(=O)NO)C2)cc1` (stereo not shown) [2f] registered a melting point of 168.4 to 170.2 °C. In addition, the IC50 against porcine APN was determined as 12500 ± 800 nM.
For `Cc1ccccc1C1=NN(C(N)=O)C(c2ccccc2OCC(=O)NO)C1` (stereo not shown) [2g], in that order: 144.5 to 146.2 °C and 110 ± 10 nM.
The compound `NC(=O)N1N=C(c2ccccc2F)CC1c1ccccc1OCC(=O)NO` (stereo not shown) [2h] registered a melting point of 124.4 to 126.1 °C. This compound registered an IC50 on porcine APN of 150 ± 10 nM.
As to `NC(=O)N1N=C(c2c(F)cccc2F)CC1c1ccccc1OCC(=O)NO` (stereo not shown) [2j], the melting point was 186.2 to 188.2 °C. The compound further yielded an IC50 at porcine APN of 120 ± 10 nM.
For `NC(=O)N1N=C(c2ccc(Cl)cc2Cl)CC1c1ccccc1OCC(=O)NO` (stereo not shown) [2l], in that order: 196.3 to 198.2 °C and 420 ± 30 nM.
As to `NC(=O)N1N=C(c2cccc3ccccc23)CC1c1ccccc1OCC(=O)NO` (stereo not shown) [2m], the melting point is 204.2 to 206.2 °C. The “fold more potent against APN than 2n” value on porcine APN (IC50 ratio vs 2n) is “over 10 fold”. For the same compound, on porcine APN, the IC50 was 210 ± 40 nM.
Turning to `NC(=O)N1N=C(c2ccc3ccccc3c2)CC1c1ccccc1OCC(=O)NO` (stereo not shown) [2n], the melting point was 166.2 to 168.2 °C. Besides, the IC50 on porcine APN was found to be 2500 ± 100 nM.
For `CC(C)C[C@H](NC(=O)[C@@H](O)[C@H](N)Cc1ccccc1)C(=O)O` [Bestatin, reference compound], the IC50 in the data set on ES-2, in the data set with HepG2, in the data set on K562, with PC-3, with PLC/PRF/5 and with U937 was more than 500000 nM throughout. In data set [1], the “body weight loss” value is listed as “no significant body weight loss”.
The compound `NC(=O)N1N=C(c2ccccc2)CC1c1ccccc1OCC(=O)NO` (stereo not shown) [compound 1, reference compound] came in with an IC50 against porcine APN of 150 ± 20 nM.
In turn, `NC(=O)N1N=C(c2ccccc2Br)CC1c1ccccc1OCC(=O)NO` (stereo not shown) [compound 2a, 3-(2-Bromophenyl)-5-(2-(2-(hydroxyamino)-2-oxoethoxy)phenyl)-4,5-dihydro-1H-pyrazole-1-carboxamide] returned a melting point of 168.4 to 170.2 °C. This compound returned an IC50 on porcine APN of 150 ± 30 nM.
Taken in the same sequence, the figures for `NC(=O)N1N=C(c2ccccc2Cl)CC1c1ccccc1OCC(=O)NO` (stereo not shown) [compound 2i] were 172.2 to 174.1 °C and 100 ± 10 nM.
As for `NC(=O)N1N=C(c2c(Cl)cccc2Cl)CC1c1ccccc1OCC(=O)NO` (stereo not shown) [compound 2k], the melting point was 200.2 to 202.2 °C. The “fold more potent against APN than bestatin” value on porcine APN (IC50 ratio vs bestatin) is given as “over 140 fold”. The “fold more potent against APN than compound 1” value at porcine APN (IC50 ratio vs compound 1) is recorded as more than 2 fold. The compound further registered an IC50 on porcine APN of 64 ± 10 nM. Besides, the IC50 in the data set on ES-2 came out at 141000 ± 3800 nM. For the same compound, in the data set with HepG2, the IC50 is 101000 ± 4900 nM. Also, the IC50 in the data set with K562 was 15600 ± 2200 nM. For the same compound, in the data set with PC-3, the IC50 was determined as 56100 ± 3100 nM. Further, in the data set on PLC/PRF/5, the IC50 came to 106000 ± 4700 nM. Further, in the data set on U937, the IC50 came out at 49200 ± 3800 nM. Besides, in the data set on ES-2 cells invasion (ES-2 cells, 10 μM of 2k vs 100 μM bestatin), the “anti-invasion activity at 10 μM compared with 100 μM of bestatin” value is reported as “comparable, if not better”. Moreover, in the data set on ES-2 cells invasion (ES-2 cells, both at 100 μM, P < 0.05), the “anti-invasion effect at 100 μM compared with bestatin” value is “significantly better than that of bestatin”. Also, the “inhibition of ES-2 cells invasion” value in the data set on ES-2 cells invasion (transwell with matrigel, 8 h, several concentrations) is “inhibit the ES-2 cells invasion in a concentration dependent manner”. Also, the “in vivo anti-metastasis effect” value in the data set with mice H22 hepatoma cells is “effectively prevent the pulmonary metastasis”. For the same compound, in data set [1], the “body weight loss” value is “no significant body weight loss”.
Turning to `COc1ccccc1C1=NN(C(N)=O)C(c2ccccc2OCC(=O)NN)C1` (stereo not shown) [compound 2o, 5-(2-(2-Hydrazinyl-2-oxoethoxy)phenyl)-3-(2-methoxyphenyl)-4,5-dihydro-1H-pyrazole-1-carboxamide], the melting point was in the range of 156.6 to 158.2 °C. This compound yielded an IC50 against porcine APN of 30200 ± 1900 nM.
